Data published in patent US6069156A, “Indole derivatives as cGMP-PDE inhibitors” (Fujisawa Pharmaceutical Co., Ltd., priority 1995, dated 2000).

Tests used:
corpora cavernosa = assay: Effect on the Relaxation Elicited by Electrical Field Stimulation in rat Corpora Cavernosa; settings: compound at 10^-7 M
Protocol: (b) Effect of Test Compound on the Relaxation Elicited by Electrical Field Stimulation in rat Corpora Cavernosa.
The rat erectile tissue strip prepared according to the method described by Italiano et al. (Pharmacological Research, 30, No4, 1994) was placed 25 ml organ bath containing Krebs-Ringer solution. The bath was maintained at 37° C. and bubbled with 95% O2 and 5% CO2. The solution also contained atropine (1 μM) and guanethidine (50 μM). The erectile tissue strip was stretched with a resting force of 0.25 g, and isometric contraction were recorded via force development transducer on a recorder. The bipolar platinum electrode connected to the electric stimulator was placed around the strip.
The strip was equilibrated in the Krebs-Ringer solution for about 60 minutes and preconstructed by 0.1 mM norepinephrine to ascertain the responsibility of each preparation. The strip was washed several times, and then constricted by 0.1 mM norepinephrine. After getting stable contractile response to norepinephrine, the first electrical field stimulation (1 to 45 Hz, 20V, 0.5 msec duration, 90 sec interval) was delivered. 30 minutes after adding the tested compound, the second electrical field stimulation was delivered.

FK506 nephritis = assay: FK506 Nephritis Model (a); format: in vivo, Spontaneously hypertensive rats; settings: orally twice a day for two weeks; FK506 18 mg/kg daily for 1 week
Protocol: (a) Spontaneously hypertensive rats weighing 250-300 g were used. FK506 dissolved in olive-oil containing 5% ethanol was given orally to the animals in a daily dose 18 mg/kg for 1 week. After the last dosing of FK506, 24-hours urine was collected for urinalysis. Blood was withdrawn from the abdominal aorta under ether anesthesia 24 hours after the last dosing of FK506, and plasma was separated by centrifugation for biochemical analysis.
The each test compound was dissolved in PEG 400 and given orally by the volume of 1 ml/kg twice a day for two weeks.
Biochemistry and urinalysis: Urine volume, plasma creatinine, urine creatinine, blood urea nitrogen, plasma sodium, urine sodium, plasma potassium and urine potassium, were measured with an autoanalyzer (TBA-20R Toshiba, OM-6020 Daiichi Kagaku).

[1] = tested on: Coronary vasospasm induced with vasopressin; assay: Vasopressin Induced-vasospasm Model (ST segment depression); format: in vivo, Male Donryu rats; settings: 10 mg/kg orally 30 minutes before vasopressin 0.2 iu/kg
Protocol: Vasopressin Induced-vasospasm Model
Male Donryu rats, weighing 160-200 g, were anesthetized intraperitoneally with sodium pentobarbital (60 mg/kg) 15 minutes before intravenous administration of vasopressin, and the femoral vein was cannulated with polyethylene tubing (diameter 0.8 mm). Coronary vasospasm was induced with vasopressin (0.2 iu/kg) dissolved in saline through the cannula in the femoral vein. The each test compound (10 mg/kg) was administered orally 30 minutes before the administration of vasopressin. The standard limb lead II of the electrocardiogram was recorded with an electrocardiograph. The depression of ST segment was measured as the difference in the amplitudes of the ST segment after and just before the administration of vasopressin. The amplitudes of ST segment were measured at intervals of 0.5 minutes for 5 minutes after administration of vasopressin.

CCCc1c(C(=O)C(C)C)c2ccc(C(N)=O)cc2n1Cc1ccccc1Cl [Example 6, 1-(2-chlorobenzyl)-3-isobutyryl-2-propylindole-6-carboxamide]
relaxation of corpora cavernosa elicited by electrical field stimulation (corpora cavernosa): potentiated relaxation of corpora cavernosa elicited by electrical field stimulation | Relaxant response elicited by 30 Hz (corpora cavernosa; control 14.3%): 17.1% | recovery in a measure of creatinine clearance (ml/kg/min) (FK506 nephritis): more than 45% | recovery in urinary sodium excretion (FK506 nephritis): more than 50% | inhibiting activity (depression of ST segment) [1]: more than 50%
